Measurements from ChEMBL document CHEMBL4414661, “Trikoramide A, a Prenylated Cyanobactin from the Marine Cyanobacterium Symploca hydnoides” (J Nat Prod, 2019).
Activity calls are given as the source filed them. The rule behind the calls is not given here. Numbered stars: 1 amine (or outer) side, 2 acyl side, 3 side chain; on linkers, the order of the positions; unused ones are H or OH. Square brackets hold non-standard residues; d marks the D form. Peptide text beside a SMILES is read from it. X1 = CC(C)=CC[C@@]12C[C@@H](C(=O)[*:2])N([*:1])[C@@H]1Nc1ccccc12

Assays:
[1] = test system: Klebsiella pneumoniae; assay: Antibacterial activity against Klebsiella pneumoniae assessed as bacterial growth inhibition at 100 uM measured after 16 hrs by microplate reader assay; assay type: functional, organism-based
[2] = test system: Escherichia coli; assay: Antibacterial activity against Escherichia coli assessed as bacterial growth inhibition at 100 uM measured after 16 hrs by microplate reader assay; assay type: functional, organism-based
[3] = test system: OCI-AML2; assay: Cytotoxicity against human OCI-AML2 cells measured after 24 hrs by MTT assay; assay type: functional, cell-based; conditions: OCI-AML2, 24 h
[4] = Inhibition of quorum sensing system in Pseudomonas aeruginosa PAO1 transfected with lasB-GFP at 10 uM by measuring reduction in fluorescence intensity up to 16 hrs by fluorescence assay relative to control
[5] = test system: Staphylococcus aureus; assay: Antibacterial activity against methicillin-resistant Staphylococcus aureus assessed as bacterial growth inhibition at 100 uM measured after 16 hrs by microplate reader assay; assay type: functional, organism-based
[6] = test system: MOLT-4; assay: Cytotoxicity against human MOLT4 cells measured after 24 hrs by MTT assay; assay type: functional, cell-based; conditions: MOLT-4, 24 h
[7] = test system: MCF7; assay: Cytotoxicity against human MCF7 cells measured after 24 hrs by MTT assay; assay type: functional, cell-based; conditions: MCF7, 24 h

SMILES: CC(C)=CC[C@@]12C[C@H]3C(=O)N[C@@H](CC(C)C)C(=O)N[C@@H](Cc4ccccc4)C(=O)N4CCC[C@H]4C(=O)N[C@@H](CC(C)C)C(=O)N4CCC[C@H]4C(=O)N[C@@H](CC(C)C)C(=O)N4CCC[C@H]4C(=O)N[C@@H](C(C)C)C(=O)N4CCC[C@H]4C(=O)N3[C@@H]1Nc1ccccc12 (cyclo(FPLPLPVP[X1]L))
- Activity [1]: inactive
- Activity [2]: inactive
- IC50 [3]: 8.2 µM
- inhibition [4]: 26%
- Activity [5]: inactive
- IC50 [6]: 5.75 µM
- IC50 [7]: 19 µM
